Common to all, as to assay: growth of human tumour cells (NCI), 48 h
Assay [1] concerns 786-0 renal.
For assay [2], the system named is ACHN renal.
Assay [3] concerns DU-145 prostate.
Assay [4] concerns HCT-116 colon.
Assay [5] concerns HOP-62 NSCLC.
Assay [6] has as its system K-562 leukemia.
For assay [7], the system named is MCF7 breast.
In assay [8] the test system is MDA-MB-231 breast.
For assay [9], the system named is MDA-N.
The subject of assay [10] is NCI-H460 lung.
Assay [11] has as its system NCI/ADR-RES ovarian.
For assay [12], the system named is OVCAR-3 ovarian.
In assay [13] the test system is OVCAR-4 ovarian.
Assay [14] has as its system RXF 393 renal.
Assay [15] deals with SW-620 colon.
Assay [16] concerns UACC-257 melanoma.
Assay [17] relates to UO-31 renal.
Assay [18] relates to HL-60(TB) leukemia.
Assay [19] relates to MALME-3M melanoma.
Assay [20] has as its system T-47D breast.

The structures appear in SMILES notation.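 In this assay, cells in 96-well plates receive the compound at five concentrations for 48 hours. Endpoints are linearly interpolated between the surrounding concentrations. TGI denotes the concentration required for complete inhibition of growth.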

As for `COc1ccc(C/C=C(\C)CCO)cc1`, the TGI in assay [1], in assay [2], in [3], in [4], in assay [5] and in assay [6] was greater than 100 µM each time. The TGI in assay [7], in [8], in assay [9], in [10], in [11] and in [12] was greater than 100 µM throughout. For the same compound, the TGI in [13], in assay [14], in assay [15], in assay [16] and in [17] was greater than 100 µM throughout.

With `CC1CN=C(N(C(=O)Nc2ccc(Cl)cc2)c2cccc(Cl)c2)S1` (centres undefined), the TGI in assay [1], in assay [2], in assay [3], in assay [4], in assay [18] and in assay [5] was greater than 100 µM in each case. The TGI in [19], in assay [7], in assay [8], in assay [9], in assay [10] and in assay [11] was greater than 100 µM each time. The TGI in assay [12], in [13], in assay [15], in [20], in assay [16] and in assay [17] was greater than 100 µM in each case.

In the case of `O=P(O)(O)c1ccc2c(c1)OCCOCCOCCOCCO2`, the TGI in assay [1], in assay [2], in [3], in assay [4], in assay [18] and in assay [5] was greater than 100 µM each time. Besides, the TGI in [6], in assay [19], in assay [7], in assay [8], in assay [9] and in assay [10] was greater than 100 µM in each case. The TGI in [15], in assay [20], in assay [16] and in [17] was greater than 100 µM throughout.

In the case of `COc1c(C)c(C/C=C(\C)CC/C=C(\C)CC/C=C(\C)CC/C=C(\C)CCC=C(C)C)c(OC)c(OC)c1OC`, the TGI is 31.8 µM in assay [1]; 33.3 µM in assay [2]; greater than 100 µM in [3]; greater than 100 µM in [4]; 37.6 µM in assay [5]; 55.1 µM in [6]. For the same compound, the TGI was greater than 100 µM in assay [7]; greater than 100 µM in [8]; greater than 100 µM in assay [9]; 23.2 µM in assay [10]; 59.8 µM in assay [11]; greater than 100 µM in assay [12]. For the same compound, the TGI in [13] is 52.3 µM; in assay [14], greater than 100 µM; in [15] it was greater than 100 µM; in assay [16], greater than 100 µM; in assay [17], 70.4 µM.

Turning to `O=C(O)CN1CCN2CCCCCCCCN(CC1)CCN(CC(=O)O)CC2`, the TGI is greater than 100 µM in assay [1]; greater than 100 µM in assay [2]; greater than 100 µM in [3]; greater than 100 µM in [4]; 30.7 µM in [18]; greater than 100 µM in assay [5]. For the same compound, the TGI in [6], in assay [19], in [7], in assay [8], in assay [9] and in assay [10] was greater than 100 µM in each case. Further, the TGI in assay [11], in [12], in [13], in assay [15], in assay [20] and in assay [16] was greater than 100 µM in each case. In addition, the TGI in assay [17] was greater than 100 µM.

Regarding `O=C1C=CC(=O)c2c(O)c(NCCN3CCOCC3)c(Cl)c(O)c21`, the TGI in assay [1] was 5.47 µM; in assay [2], 7.51 µM; in assay [3], 3.12 µM; in assay [4] it was 3.17 µM; in assay [5], 3.72 µM; in [6] it was 7.59 µM. Besides, the TGI is 3.31 µM in assay [19]; 2.96 µM in [7]; 6.43 µM in assay [8]; 5.33 µM in [9]; 3.3 µM in assay [10]; 4.88 µM in assay [11]. Besides, the TGI in assay [12] is 7.26 µM; in [13], 3.22 µM; in assay [15], 2.91 µM; in assay [20], 4.51 µM; in [16], 4.56 µM; in assay [17], 3.96 µM.

As for `CC(C)CC(C#CCCOC(=O)c1ccccc1)OC(=O)c1ccccc1` (centres undefined), the TGI in [1], in [2], in assay [3], in assay [4], in assay [18] and in assay [5] was greater than 10 µM each time. Also, the TGI in [6], in [19], in [7], in assay [8], in [9] and in assay [10] was greater than 10 µM each time. For the same compound, the TGI in assay [12], in assay [14], in [15], in assay [20], in [16] and in [17] was greater than 10 µM each time.

For the compound `Cc1cn(C(CO)OC(CO)CN(O)C2C3CC4CC(C3)CC2C4)c(=O)[nH]c1=O` (centres undefined), the TGI in assay [1], in [2], in assay [3], in assay [4], in [18] and in [5] was greater than 100 µM each time. For the same compound, the TGI in [6], in assay [7], in [8], in assay [9], in assay [10] and in assay [13] was greater than 100 µM in each case. Further, the TGI in assay [15], in assay [20], in [16] and in assay [17] was greater than 100 µM throughout.
